In PubChem BioAssay AID179 (DTP/NCI, 2004) one finds EC50, IC50 and outcome data, which are given here for 52 compounds.

Calls of active or inactive are those of the source.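 Rule for the calls: active = compounds giving half or more protection of infected cells from virus-caused growth loss, again on retest; inactive = the rest.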 Where a SMILES comes first, the peptide text is derived from it. [ ]: non-standard residue; d: D form. The star is where a group is joined. ξ: configuration not given here. NMeF = CN[CH](Cc1ccccc1)C(=O)O; ξNMe2Val = CC(C)C(C(=O)*)N(C)C; NMeV = CN[CH](C(=O)O)C(C)C; OtBu = CC(C)(C)O*

This experiment has as its system CEM cells HIV-1 protection, formazan growth assay. Nature of the experiment: NCI AIDS Antiviral Assay. The note with it: for IC50: measured here: growth of uninfected CEM cells. Put shortly: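 Five concentrations of each compound were applied to infected and uninfected human CEM cells. Protection from HIV-1 was judged from growth measured with a soluble formazan assay.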

As for `O=C1/C(=N\S(=O)(=O)c2ccccc2)C([n+]2ccc(Cc3ccccc3)cc2)=C([O-])c2ccccc21`, the EC50 (commonly the concentration at which the effect is half-maximal) is greater than 200 µM and the IC50 (usually the concentration that gives 50% inhibition) was 2.63 µM. The corresponding values for `CN(C)Cc1cc(CN(C)C)cc(CN(C)C)c1` are greater than 200 µM and greater than 200 µM. In the same order, the values of `COc1ccc(-c2nnc(-c3c(C)n(C)n(-c4ccccc4)c3=O)o2)cc1` are greater than 200 µM and greater than 200 µM.

Turning to `O=C(/C(N=Nc1ccccc1)=C(\O)c1ccccc1)c1ccccc1`, the EC50 was greater than 21.9 µM and the IC50 is greater than 21.9 µM.

On to `CNC(=O)CC1NC(=O)c2csc(n2)-c2ccc(-c3nc(C4=NC(C(=O)N5CCCC5C(N)=O)CO4)cs3)nc2-c2csc(n2)-c2csc(n2)C(C(C)C)NC(=O)CNC(=O)c2csc(n2)C(C(C)C)NC(=O)c2nc1sc2C` (configuration not stated), for which the EC50 was greater than 10 µM and the IC50 was greater than 10 µM. For the compound `Cc1c(C(=O)CC(=O)C(=O)Nc2ccccc2C(F)(F)F)[n+](=O)c2ccccc2n1[O-]`, the EC50 is greater than 4.57 µM and the half-maximal inhibitory concentration (IC50) was greater than 4.57 µM. For the compound `O=C(CCc1n[nH]c(=S)o1)Nc1ccccc1C(F)(F)F`, the EC50 was greater than 295 µM and the IC50 came to 229 µM. Consider `O=C1C(C2CCCCC2)CCCC1(CO)CO` (configuration not stated), for which the outcome was inactive.

In the case of `CCC12C=C(C(=O)OC)N3c4ccccc4C4CCN(CCC1)C2C43` (configuration not stated), the result was inactive. `Oc1ccccc1C=Nc1ccccc1N=Cc1ccccc1O`: the EC50 was greater than 4.57 µM and the IC50 was greater than 4.57 µM. As for `Nc1ccc2oc(=O)c(C(=O)O)cc2c1`, the EC50 was greater than 363 µM and the IC50 was determined as 162 µM. The corresponding values for `O=CC[C@H]1CCc2ccccc2C12CCC(=O)CC2` are greater than 74.1 µM and greater than 74.1 µM. The corresponding values for `CC(C)(CCc1nc2ccccc2[nH]1)C(=O)O` are greater than 200 µM and greater than 200 µM. In the case of `N#CC(NCCc1ccccc1)c1ccc(C(C#N)NCCc2ccccc2)cc1` (configuration not stated), the EC50 is greater than 200 µM and the IC50 was determined as 10.5 µM. With `COc1ccc(Cc2nnc(C)c3c(C)[nH]nc23)cc1OC`, the outcome was inactive.

As for `COC(OC)C1OC(CO)C(n2ccc(N)nc2=O)C1O` (configuration not stated), the EC50 is greater than 200 µM and the IC50 is greater than 200 µM. For `COC(=O)/C=c1\s/c(=C\C(=O)OC)c2ccccc12`, the outcome was inactive. `O=S(Cc1ccccc1)c1ccccc1Cn1cccc1` (configuration not stated): the EC50 was greater than 200 µM and the IC50 is 158 µM. The corresponding values for `COc1ccc(-c2cc(=O)c3c(O)cc(O)cc3o2)cc1` are greater than 105 µM and greater than 105 µM.

For `Nc1ccc2c3c(ccc([N+](=O)[O-])c13)CC2`, the EC50 was greater than 200 µM and the IC50 came out at 102 µM.

For `CC(CO)CCNc1ncnc2c1ncn2CCC(=O)OC(C)(C)C` (configuration not stated), the EC50 is greater than 200 µM and the IC50 was greater than 200 µM.

In the case of `CCOC12SC(=Nc3ccc(C)cc3)NN1C(=S)N(C)N=C2C` (configuration not stated), the EC50 is greater than 200 µM and the IC50 was greater than 200 µM. With `Cc1cc(C)c(COC(=O)NS(=O)(=O)Nc2ccccc2)c(C)c1`, the EC50 was greater than 200 µM and the 50% inhibitory concentration (IC50) stood at 43.7 µM. With `COc1cc(N=Nc2ccccc2C(=O)[O-])cc(/C=N/NC(N)=S)c1[O-].[O]=[Mo]=[O].[O]=[Mo]=[O]`, the result was inactive.

Regarding `CC(C)N(C(=O)C12C3C4C5C3C1(C#N)C5C42)C(C)C` (configuration not stated), the EC50 was greater than 195 µM and the IC50 was greater than 195 µM. Regarding `O=c1[nH]cnc2c1ncn2C1C=CC(CO)CC1` (configuration not stated), the EC50 was greater than 200 µM and the IC50 is greater than 200 µM. On to `CC(C)C(C(=O)N(C)C(Cc1ccccc1)C(=O)N(C)C(C(=O)N(C)C(C(=O)N1CCCC1C(=O)OC(C)(C)C)C(C)C)C(C)C)N(C)C` (configuration not stated) (ξNMe2Val-[NMeF][NMeV][NMeV]P-OtBu; configuration not given here), for which the EC50 is 24.5 µM and the IC50 stood at 110 µM.

As to `COC(=O)N(CCc1ccccc1)C(C)(C)C#N`, the EC50 is greater than 29.5 µM and the IC50 is greater than 29.5 µM.

For `C=CCN(N=O)C(=O)ON1C(=O)CCC1=O`, the EC50 was greater than 1100 µM and the IC50 came to 275 µM. The corresponding values for `COC(=O)c1cc(C(=C(Cl)Cl)c2cc(C(=O)OC)c(OC)c(Br)c2C)c(C)c(Br)c1OC` are greater than 200 µM and 79.4 µM. Turning to `CN(C)CCNC(=O)c1cccc(CO)c1[N+](=O)[O-]`, the EC50 was greater than 200 µM and the IC50 is greater than 200 µM. On to `Nc1cc(=O)[nH]c(=S)n1-c1ccc(Cl)cc1`, for which the EC50 was greater than 200 µM and the IC50 was greater than 200 µM. Consider `C=C(C)C1CCC(C(=O)O)CC1` (configuration not stated), for which the EC50 was greater than 200 µM and the IC50 was greater than 200 µM. On to `CC(C)CCC[C@@H](C)C1CCC2[C@@H]3CC=C4C[C@@H](OP(=O)(O)OP(=O)(O)O)CC[C@]4(C)C3CC[C@@]21C` (some centres not stated), for which the EC50 is greater than 6.17 µM and the IC50 was greater than 6.17 µM. Take `CCOC(=O)c1c(-c2ccccc2)c(C(OC(c2ccccc2)c2c(-c3ccccc3)c(C(=O)OCC)n3ccccc23)c2ccccc2)c2ccccn12` (configuration not stated): the EC50 is greater than 5.25 µM and the IC50 is greater than 5.25 µM. Turning to `COC(=O)c1oc([N+](=O)[O-])c(Cl)c1Cl`, the EC50 was greater than 151 µM and the IC50 worked out at 0.776 µM. `Cc1ccc(/C(C#N)=C/c2ccccc2)cc1`: the EC50 was greater than 200 µM and the IC50 is 28.8 µM. `Clc1ccc(C2ON=C(c3ccccc3)N2C23CC4CC(CC(C4)C2)C3)cc1` (configuration not stated): the EC50 is greater than 200 µM and the IC50 is greater than 200 µM. Turning to `Cc1[nH]c(=O)[nH]c(=O)c1Cc1ccc(Cl)cc1`, the EC50 is greater than 200 µM and the IC50 was greater than 200 µM. For `CC(OC(C)(C)C)[C@H](NC(=O)OCC(Cl)(Cl)Cl)C(=O)O` (some centres not stated), the EC50 was greater than 200 µM and the 50% inhibitory concentration (IC50) was greater than 200 µM. As for `COC(=O)c1ccccc1N1C(=O)Cc2ccccc2C1=O`, the result was inactive. Consider `NNC(=S)N/N=C/C(Cl)=C(\Cl)C(=O)O`, for which the EC50 is greater than 28.2 µM and the IC50 was greater than 28.2 µM. For `C1CCN2CC34CC(CC5CCCN(C6CCCC3N6)C54)C2C1` (configuration not stated), the EC50 is greater than 309 µM and the IC50 is greater than 309 µM. Regarding `Cc1cc(N=Nc2c(C)ccc3ncccc23)ccc1N`, the EC50 is greater than 200 µM and the IC50 was found to be 0.603 µM. In the same order, the values of `O=C(Nc1ccc(Cl)c(Cl)c1)C(=O)C(C1OC(=O)c2ccccc21)[N+](=O)[O-]` (configuration not stated) are greater than 87.1 µM and greater than 87.1 µM. For the compound `Fc1ccc(Oc2nc3ccccc3nc2-c2ccccc2)cc1`, the outcome was inactive. In the case of `CCCCCC(=O)c1c(O)cc2c(c1O)C(=O)c1c(O)cc(O)cc1C2=O`, the EC50 is greater than 200 µM and the IC50 was 56.2 µM.

Turning to `Nc1c(O)c(C(=O)O)cc2ccccc12`, the EC50 was greater than 200 µM and the IC50 is 17.8 µM. The corresponding values for `CC(=O)NC1=CC(=O)c2cc(C)cc(O)c2C1=O` are greater than 200 µM and 5.01 µM. With `CN(CCS(=O)(=O)N1C(=O)C2CCCN2C(=O)[C@@H]1Cc1ccccc1)C(=O)OCc1ccccc1` (some centres not stated), the EC50 is greater than 50.1 µM and the IC50 was greater than 50.1 µM. For `Cc1sc2nc3n(c(=O)c2c1C)N=CN(c1ccccc1)C3`, the EC50 is greater than 100 µM and the half-inhibitory concentration (IC50) is greater than 100 µM. As to `O=[N+]([O-])c1ccc(S(=O)(=O)NCCSSCCNS(=O)(=O)c2ccc([N+](=O)[O-])cc2)cc1`, the EC50 was greater than 200 µM and the IC50 was determined as 10.5 µM.
